Test [1] relates to Dopa-A′ (DNA, aptamer) CGACGCCAGTTTGAAGGTTCGTTCGCAGGTGTGGAGTGACGTCG
Briefly: ITC. As to conditions: PBS 1x, 2 mM Mg2+; 1x PBS, 2 mM MgCl2, 25 °C; one-site fit.

The subject of test [2] is Dopa-A (DA-A) (DNA, aptamer) GACGACTCCAGTTTGAAGGTTCGTTCGCAGGTGTGGAGTGAAGTCGTC
Description: ITC. To be noted: PBS 1x, 2 mM Mg2+; 1x PBS, 2 mM MgCl2, 25 °C; one-site fit.

For orientation: Kd means the equilibrium constant for the complex coming apart. A higher Kd goes with a looser complex.

On to `NCCc1ccc(O)c(O)c1`, for which the Kd is given as 3.5 µM in test [1] and 2.7 µM in test [2].
